Reference: ChEMBL document CHEMBL1201862, “PubChem BioAssay data set” (2004)
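Exposure lasted 48 hours, with cells grown in 96-well plates and compounds tested at five concentrations. Abbreviation: GI50, concentration required for 50% inhibition of growth.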 Calls of active or inactive are those of the source. Cut-off read from the data, not from the text of the source: active = GI50 up to about 1.1 µM and inactive = higher.

Assays:
Assay in all cases: NCI tumour cell line growth inhibition, 48 h
[1] = system: SNB-75
[2] = system: RPMI-8226
[3] = system: SNB-19
[4] = system: MCF7
[5] = system: OVCAR-5
[6] = system: NCI/ADR-RES
[7] = system: SR
[8] = system: HCT-116
[9] = system: OVCAR-8
[10] = system: ACHN
[11] = system: UACC-62
[12] = system: BT-549
[13] = system: U-251
[14] = system: LOX IMVI
[15] = system: SW-620
[16] = system: UO-31
[17] = system: A549
[18] = system: Malme-3M
[19] = system: SF-295

SMILES	GI50 [1]	GI50 [2]	GI50 [3]	GI50 [4]	GI50 [5]	GI50 [6]	GI50 [7]	GI50 [8]	GI50 [9]	GI50 [10]	GI50 [11]	GI50 [12]	GI50 [13]	GI50 [14]	GI50 [15]	GI50 [16]	GI50 [17]	GI50 [18]	GI50 [19]
Cc1c(NC(=O)Nc2c(Cl)cccc2Cl)c(=O)n(-c2ccccc2)n1C	> 100 µM (inactive)	> 100 µM (inactive)	> 100 µM (inactive)	> 100 µM (inactive)	> 100 µM (inactive)	> 100 µM (inactive)	> 100 µM (inactive)	> 100 µM (inactive)	> 100 µM (inactive)	> 100 µM (inactive)	> 100 µM (inactive)	> 100 µM (inactive)	> 100 µM (inactive)	> 100 µM (inactive)	> 100 µM (inactive)	> 100 µM (inactive)	> 100 µM (inactive)	> 100 µM (inactive)	> 100 µM (inactive)
O=C(CC(=O)Nc1ccccc1Cl)NNC(c1cc(/N=N/c2ccc(Br)cc2)ccc1O)P(O)O (centres undefined)	1.62 µM (inactive)	2.84 µM (inactive)	4.1 µM (inactive)	0.791 µM (active)	3.61 µM (inactive)	1.07 µM (active)	0.766 µM (active)	0.311 µM (active)	0.525 µM (active)	0.813 µM (active)	0.964 µM (active)	2.33 µM (inactive)	1.54 µM (inactive)	1.07 µM (active)	0.647 µM (active)	0.995 µM (active)	3.82 µM (inactive)	3.6 µM (inactive)	1.67 µM (inactive)
CCc1nc(Cl)nc(Cl)c1Cl	5.53 µM (inactive)	0.0116 µM (active)	3.59 µM (inactive)	0.403 µM (active)	0.7 µM (active)	2.52 µM (inactive)	0.416 µM (active)	0.948 µM (active)	1.04 µM (active)	0.34 µM (active)	6.44 µM (inactive)	2.01 µM (inactive)	1.39 µM (inactive)	0.0826 µM (active)	0.467 µM (active)	0.276 µM (active)	2.63 µM (inactive)	0.445 µM (active)	8.57 µM (inactive)
COc1cc(I)c2c3c1OC1C34CCN(C)C(C2)C4=CC(I)C1(OC)OC (centres undefined)	15.9 µM (inactive)	19.6 µM (inactive)	27.4 µM (inactive)	20.7 µM (inactive)	24.2 µM (inactive)	28.2 µM (inactive)	16.1 µM (inactive)	23.4 µM (inactive)	20.1 µM (inactive)	27 µM (inactive)	19.2 µM (inactive)	23.9 µM (inactive)	18.3 µM (inactive)	19.6 µM (inactive)	19 µM (inactive)	18.4 µM (inactive)	29.6 µM (inactive)	20.7 µM (inactive)	46.2 µM (inactive)
N=C(N)SCc1nc(-c2ccc(Cl)cc2)no1	23.1 µM (inactive)	5.05 µM (inactive)	38.2 µM (inactive)	12.9 µM (inactive)	10.3 µM (inactive)	27.9 µM (inactive)	4.48 µM (inactive)	14.6 µM (inactive)	30.1 µM (inactive)	13.3 µM (inactive)	9.79 µM (inactive)	23.2 µM (inactive)	21.7 µM (inactive)	14.7 µM (inactive)	12.2 µM (inactive)	–	38.4 µM (inactive)	16.9 µM (inactive)	17.9 µM (inactive)
N#CC1C(=O)NC(=O)C(C#N)C1c1ccc(Cl)c(Cl)c1 (centres undefined)	25.2 µM (inactive)	–	91.2 µM (inactive)	34.4 µM (inactive)	23.4 µM (inactive)	28 µM (inactive)	18.2 µM (inactive)	13.9 µM (inactive)	37.4 µM (inactive)	22.4 µM (inactive)	–	33.3 µM (inactive)	23.7 µM (inactive)	17.1 µM (inactive)	16.7 µM (inactive)	16.5 µM (inactive)	49.3 µM (inactive)	> 100 µM (inactive)	40.3 µM (inactive)
Cc1ccc(S(=O)(=O)NC(=O)C2=C(c3ccccc3)[N-]N(C)c3nc4cccc[n+]4nc32)cc1	57.4 µM (inactive)	45.6 µM (inactive)	> 100 µM (inactive)	49.9 µM (inactive)	> 100 µM (inactive)	> 100 µM (inactive)	> 100 µM (inactive)	> 100 µM (inactive)	51.6 µM (inactive)	> 100 µM (inactive)	> 100 µM (inactive)	> 100 µM (inactive)	> 100 µM (inactive)	96.4 µM (inactive)	49.2 µM (inactive)	> 100 µM (inactive)	> 100 µM (inactive)	99.3 µM (inactive)	–
